Measurements reported in patent publication US7691898B2 (Kotobuki Pharmaceutical Co., Ltd., priority 2004, dated 2010).

Experiments:
[1] = system: NaH2PO4 loaded mice; experiment: Inhibitory effect on the elevation of serum phosphate levels in NaH2PO4 loaded mice; format: in vivo; conditions: Mus musculus; male ddY mice, oral, compound 0.5 hours before oral NaH2PO4 load; serum phosphate AUC up to 4 hours
Experimental: EVALUATION OF INHIBITORY EFFECT ON THE ELEVATION OF SERUM PHOSPHATE LEVELS 1N NaH2PO4 LOADED MICE Male ddY mice, aged 6-7 weeks, were fasted overnight and used as 6 mice/group. The compounds suspended in 0.5% methylcellulose were administered orally at a dose of 100 or 300 mg/10 mL/kg. After 0.5 hours, 50 mg/300 uL/mouse of NaH2PO4 solution was administered orally. Blood samples were taken from retro-orbital venousplexus of the mice before administration of the compounds and 0.5, 1, 2 and 4 hours after the NaH2PO4 administration, and serum phosphate concentration was measured using phospha C-test Wako kit (Wako pure chemicals Co. Ctd.). The area under the serum phosphate concentration-time curve (AUC) up to 4 hours after administration of NaH2PO4 was calculated and the inhibitory effect of serum phosphate levels was evaluated.

[2] = system: Human alkaline phosphatase; experiment: Stability test against human alkaline phosphatase; format: in vitro ADME; conditions: for amount of compound (HPLC) after incubation with human alkaline phosphatase: 2 U/mL enzyme, 0.1 M carbonate buffer, 37° C.
Experimental: Compound 42 or 2′-PP was dissolved in dimethyl sulfoxide and the concentration was adjusted to 1×10^−2 M. […] The amounts of each compound were measured by the HPLC method (HPLC condition, column: Inertsil ODS-2, eluent: 10 mM phosphate buffer/CH3CN=8/2, wavelength: 230 nm, flow rate: 1 mL/min).

SMILES: CSc1ccc(Cc2cc(C(=O)P(=O)(O)O)ccc2O)cc1 [Compound 42, [4-Hydroxy-3-(4-methylthiobenzyl)benzoyl]phosphonic acid]
- ED30 [1]: 33.3 mg/kg
- amount of compound (HPLC) after incubation with human alkaline phosphatase ([2]; Time 0 hr): 100%
- amount of compound (HPLC) after incubation with human alkaline phosphatase ([2]; Time 0.25 hr): 96.3%
- amount of compound (HPLC) after incubation with human alkaline phosphatase ([2]; Time 0.5 hr): 96%
- amount of compound (HPLC) after incubation with human alkaline phosphatase ([2]; Time 1 hr): 95.8%
- amount of compound (HPLC) after incubation with human alkaline phosphatase ([2]; Time 2 hr): 95.5%
- stability against human alkaline phosphatase (in words) ([2]; conclusion from Table 1): stable

SMILES: CCOc1ccc(Cc2ccc(P(=O)(O)O)s2)cc1 [Compound 64, 5-(4-Ethoxybenzyl)-2-thiophenephosphonic acid]
- ED30 [1]: 165 mg/kg

SMILES: O=C(c1ccc(Cc2ccc(Cl)cc2)s1)P(=O)(O)O [Compound 75, [5-(4-Chlorobenzyl)thiophen-2-carbonyl]phosphonic acid]
- ED30 [1]: 25.6 mg/kg

SMILES: CCOc1ccc(Cc2ccc(C(=O)P(=O)(O)O)s2)cc1 [Compound 70, [5-(4-Ethoxybenzyl)thiophen-2-carbonyl]phosphonic acid]
- ED30 [1]: 20.3 mg/kg

SMILES: O=C(c1ccc(O)c(Cc2cc3ccccc3s2)c1)P(=O)(O)O [Compound 54, [3-(Benzo[b]thiophen-2-ylmethyl)-4-hydroxybenzoyl]phosphonic acid]
- ED30 [1]: 13.9 mg/kg

SMILES: CSc1ccc(Cc2ccc(C(=O)P(=O)(O)O)s2)cc1 [Compound 73, [5-(4-Methylthiobenzyl)thiophen-2-carbonyl]phosphonic acid]
- ED30 [1]: 4.5 mg/kg

SMILES: CCOc1ccc(Cc2cc(CP(=O)(O)O)ccc2O)cc1 [Compound 20, [3-(4-Ethoxybenzyl)-4-hydroxybenzyl]phosphonic acid]
- ED30 [1]: 244 mg/kg

SMILES: CC(C)Oc1ccc(Cc2cc(C(=O)P(=O)(O)O)ccc2O)cc1 [Compound 46, [4-Hydroxy-3-(4-i-propoxybenzyl)benzoyl]phosphonic acid]
- ED30 [1]: 16.3 mg/kg

SMILES: O=C(c1ccc(O)c(Cc2ccc(Oc3ccccc3)cc2)c1)P(=O)(O)O [Compound 49, [4-Hydroxy-3-(4-phenoxybenzyl)benzoyl]phosphonic acid]
- ED30 [1]: 17.8 mg/kg

SMILES: CCOc1ccc(Cc2ccc(CP(=O)(O)O)s2)cc1 [Compound 65, [5-(4-Ethoxybenzyl)thiophen-2-ylmethyl]phosphonic acid]
- ED30 [1]: 256 mg/kg

SMILES: O=C(CCc1ccc(O)cc1)c1c(O)cc(O)cc1OP(=O)(O)O [reference compound]
- amount of compound (HPLC) after incubation with human alkaline phosphatase ([2]; Time 0 hr): 100%
- amount of compound (HPLC) after incubation with human alkaline phosphatase ([2]; Time 0.25 hr): 31.4%
- amount of compound (HPLC) after incubation with human alkaline phosphatase ([2]; Time 0.5 hr): 21.4%
- amount of compound (HPLC) after incubation with human alkaline phosphatase ([2]; Time 1 hr): 16.3%
- amount of compound (HPLC) after incubation with human alkaline phosphatase ([2]; Time 2 hr): 1.2%

SMILES: CCSc1ccc(Cc2ccc(C(=O)P(=O)(O)O)s2)cc1 [Compound 76, [5-(4-Ethylthiobenzyl)thiophen-2-carbonyl]phosphonic acid]
- ED30 [1]: 2 mg/kg

SMILES: CCOc1ccc(Cc2cc(C(=O)P(=O)(O)O)ccc2O)cc1 [Compound 38, [3-(4-Ethoxybenzyl)-4-hydroxybenzoyl]phosphonic acid]
- ED30 [1]: 44.5 mg/kg

SMILES: CSc1ccc(Cc2cc(C(=O)P(=O)(O)O)ccc2OCCO)cc1 [Compound 60, [4-(2-Hydroxyethoxy)-3-(4-methylthiobenzyl)benzoyl]phosphonic acid]
- ED30 [1]: 12.1 mg/kg

SMILES: CCCCCCCCCCCCCOc1ccc(Cc2ccc(C(=O)P(=O)(O)O)s2)cc1 [Compound 83, [5-(4-n-Tridecanyloxybenzyl)thiophen-2-carbonyl]phosphonic acid]
- ED30 [1]: 10.7 mg/kg

SMILES: CCCOc1ccc(Cc2cc(C(=O)P(=O)(O)O)ccc2O)cc1 [Compound 45, [4-Hydroxy-3-(4-n-propoxybenzyl)benzoyl]phosphonic acid]
- ED30 [1]: 20.1 mg/kg

SMILES: CCOc1ccc(Cc2cc(C(=O)P(=O)(O)O)ccc2OCCO)cc1 [Compound 57, [3-(4-Ethoxybenzyl)-4-(2-hydroxyethoxy)benzoyl]phosphonic acid]
- ED30 [1]: 30.9 mg/kg
